Experimental data taken from doi:10.1101/2020.06.11.145995v1 (biorxiv, 2020).

Tests used:
Experiment in all cases: biochemical
FLT3-autoinhibited = FLT3-autoinhibited (Homo sapiens, UniProt P36888); conditions: read-out: CPT-1-70-1 (1uM) % control
PKN1 = PKN1 (Homo sapiens, UniProt Q16512); conditions: read-out: CPT-1-70-1 (1μM) % control
PKN2 = PKN2 (Homo sapiens, UniProt Q16513); conditions: read-out: CPT-1-70-1 (1μM) % control
PIP5K1A = PIP5K1A (Homo sapiens, UniProt Q99755); conditions: read-out: CPT-1-70-1 (1μM) % control
WNK3 = WNK3 (Homo sapiens, UniProt Q9BYP7); conditions: read-out: CPT-1-70-1 (1μM) % control
PKMYT1 = PKMYT1 (Homo sapiens, UniProt Q99640); conditions: read-out: CPT-1-70-1 (1μM) % control
PIK3CD = PIK3CD (Homo sapiens, UniProt O00329); conditions: read-out: CPT-1-70-1 (1μM) % control
PIM2 = PIM2 (Homo sapiens, UniProt Q9P1W9); conditions: read-out: CPT-1-70-1 (1μM) % control
PIP5K1C = PIP5K1C (Homo sapiens, UniProt O60331); conditions: read-out: CPT-1-70-1 (1μM) % control
NIK = NIK (Homo sapiens, UniProt Q99558); conditions: read-out: CPT-1-70-1 (1μM) % control
PKAC-beta = PKAC-beta (Homo sapiens, UniProt P22694); conditions: read-out: CPT-1-70-1 (1μM) % control
PKAC-alpha = PKAC-alpha (Homo sapiens, UniProt P17612); conditions: read-out: CPT-1-70-1 (1μM) % control
SGK2 = SGK2 (Homo sapiens, UniProt Q9HBY8); conditions: read-out: CPT-1-70-1 (1μM) % control
PIP5K2C = PIP5K2C (Homo sapiens, UniProt Q8TBX8); conditions: read-out: CPT-1-70-1 (1μM) % control
PIK3CA(Q546K) = PIK3CA(Q546K) (Homo sapiens, UniProt P42336, Q546K); conditions: read-out: CPT-1-70-1 (1μM) % control
PIM1 = PIM1 (Homo sapiens, UniProt P11309); conditions: read-out: CPT-1-70-1 (1μM) % control
PIK3CG = PIK3CG (Homo sapiens, UniProt P48736); conditions: read-out: CPT-1-70-1 (1μM) % control
WNK1 = WNK1 (Homo sapiens, UniProt Q9H4A3); conditions: read-out: CPT-1-70-1 (1μM) % control
PIK3CB = PIK3CB (Homo sapiens, UniProt P42338); conditions: read-out: CPT-1-70-1 (1μM) % control
NEK10 = NEK10 (Homo sapiens, UniProt Q6ZWH5); conditions: read-out: CPT-1-70-1 (1μM) % control
SGK = SGK (Homo sapiens, UniProt O00141); conditions: read-out: CPT-1-70-1 (1μM) % control
EPHB6 = EPHB6 (Homo sapiens, UniProt O15197); conditions: read-out: CPT-1-70-1 (1uM) % control
EPHB4 = EPHB4 (Homo sapiens, UniProt P54760); conditions: read-out: CPT-1-70-1 (1uM) % control
EIF2AK1 = EIF2AK1 (Homo sapiens, UniProt Q9BQI3); conditions: read-out: CPT-1-70-1 (1uM) % control
ERK3 = ERK3 (Homo sapiens, UniProt Q16659); conditions: read-out: CPT-1-70-1 (1uM) % control
ERK4 = ERK4 (Homo sapiens, UniProt P31152); conditions: read-out: CPT-1-70-1 (1uM) % control
ERK2 = ERK2 (Homo sapiens, UniProt P28482); conditions: read-out: CPT-1-70-1 (1uM) % control
HASPIN = HASPIN (Homo sapiens, UniProt Q8TF76); conditions: read-out: CPT-1-70-1 (1uM) % control
ERBB3 = ERBB3 (Homo sapiens, UniProt P21860); conditions: read-out: CPT-1-70-1 (1uM) % control
ERK1 = ERK1 (Homo sapiens, UniProt P27361); conditions: read-out: CPT-1-70-1 (1uM) % control

Chain of SGK (O00141 whole entry): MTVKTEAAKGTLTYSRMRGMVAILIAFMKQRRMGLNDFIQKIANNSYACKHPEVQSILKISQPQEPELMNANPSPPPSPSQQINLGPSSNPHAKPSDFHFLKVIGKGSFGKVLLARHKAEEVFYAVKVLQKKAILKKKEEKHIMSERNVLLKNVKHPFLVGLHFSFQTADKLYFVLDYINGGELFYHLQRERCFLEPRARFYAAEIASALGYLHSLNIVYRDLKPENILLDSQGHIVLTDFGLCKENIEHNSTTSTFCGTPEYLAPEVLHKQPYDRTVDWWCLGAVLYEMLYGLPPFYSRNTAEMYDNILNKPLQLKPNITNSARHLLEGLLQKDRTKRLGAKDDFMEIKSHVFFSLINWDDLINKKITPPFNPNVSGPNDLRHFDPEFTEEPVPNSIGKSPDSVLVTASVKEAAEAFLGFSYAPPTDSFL
Chain of PIP5K1A (Q99755 whole entry): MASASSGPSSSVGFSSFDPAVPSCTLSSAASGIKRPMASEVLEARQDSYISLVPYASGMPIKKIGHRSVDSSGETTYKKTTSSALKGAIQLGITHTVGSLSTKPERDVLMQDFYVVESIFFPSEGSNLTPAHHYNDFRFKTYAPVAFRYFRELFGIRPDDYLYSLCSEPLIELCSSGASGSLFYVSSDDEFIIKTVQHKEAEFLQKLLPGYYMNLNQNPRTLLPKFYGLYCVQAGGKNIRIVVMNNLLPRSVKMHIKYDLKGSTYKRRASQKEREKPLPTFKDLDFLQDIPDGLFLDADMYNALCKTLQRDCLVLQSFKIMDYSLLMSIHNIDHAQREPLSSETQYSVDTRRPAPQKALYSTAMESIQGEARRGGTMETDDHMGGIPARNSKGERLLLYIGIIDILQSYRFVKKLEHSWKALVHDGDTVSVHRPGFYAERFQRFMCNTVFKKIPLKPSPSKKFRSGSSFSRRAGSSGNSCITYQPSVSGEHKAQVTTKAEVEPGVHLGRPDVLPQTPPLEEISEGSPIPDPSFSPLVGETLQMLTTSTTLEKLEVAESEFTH
Chain of ERK3 (Q16659 whole entry): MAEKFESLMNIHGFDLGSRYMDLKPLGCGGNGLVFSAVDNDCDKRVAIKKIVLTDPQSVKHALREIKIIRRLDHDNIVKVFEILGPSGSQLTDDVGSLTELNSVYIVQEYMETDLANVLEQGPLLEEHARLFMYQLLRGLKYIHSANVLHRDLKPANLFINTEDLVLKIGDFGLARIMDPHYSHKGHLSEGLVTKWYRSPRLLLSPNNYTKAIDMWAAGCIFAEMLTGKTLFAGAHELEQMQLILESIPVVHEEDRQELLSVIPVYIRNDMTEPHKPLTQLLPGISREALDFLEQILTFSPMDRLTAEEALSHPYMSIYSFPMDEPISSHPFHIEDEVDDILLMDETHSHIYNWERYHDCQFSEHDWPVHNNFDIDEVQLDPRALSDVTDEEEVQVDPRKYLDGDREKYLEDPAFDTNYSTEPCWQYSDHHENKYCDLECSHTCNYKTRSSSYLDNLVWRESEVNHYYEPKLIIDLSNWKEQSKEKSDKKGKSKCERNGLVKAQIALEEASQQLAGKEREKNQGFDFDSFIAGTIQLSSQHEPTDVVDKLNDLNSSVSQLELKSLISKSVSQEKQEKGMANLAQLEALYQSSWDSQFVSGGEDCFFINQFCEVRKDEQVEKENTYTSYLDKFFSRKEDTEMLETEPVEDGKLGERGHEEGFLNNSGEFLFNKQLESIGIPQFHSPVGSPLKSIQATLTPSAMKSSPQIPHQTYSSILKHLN
Chain of PKN1 (Q16512 whole entry): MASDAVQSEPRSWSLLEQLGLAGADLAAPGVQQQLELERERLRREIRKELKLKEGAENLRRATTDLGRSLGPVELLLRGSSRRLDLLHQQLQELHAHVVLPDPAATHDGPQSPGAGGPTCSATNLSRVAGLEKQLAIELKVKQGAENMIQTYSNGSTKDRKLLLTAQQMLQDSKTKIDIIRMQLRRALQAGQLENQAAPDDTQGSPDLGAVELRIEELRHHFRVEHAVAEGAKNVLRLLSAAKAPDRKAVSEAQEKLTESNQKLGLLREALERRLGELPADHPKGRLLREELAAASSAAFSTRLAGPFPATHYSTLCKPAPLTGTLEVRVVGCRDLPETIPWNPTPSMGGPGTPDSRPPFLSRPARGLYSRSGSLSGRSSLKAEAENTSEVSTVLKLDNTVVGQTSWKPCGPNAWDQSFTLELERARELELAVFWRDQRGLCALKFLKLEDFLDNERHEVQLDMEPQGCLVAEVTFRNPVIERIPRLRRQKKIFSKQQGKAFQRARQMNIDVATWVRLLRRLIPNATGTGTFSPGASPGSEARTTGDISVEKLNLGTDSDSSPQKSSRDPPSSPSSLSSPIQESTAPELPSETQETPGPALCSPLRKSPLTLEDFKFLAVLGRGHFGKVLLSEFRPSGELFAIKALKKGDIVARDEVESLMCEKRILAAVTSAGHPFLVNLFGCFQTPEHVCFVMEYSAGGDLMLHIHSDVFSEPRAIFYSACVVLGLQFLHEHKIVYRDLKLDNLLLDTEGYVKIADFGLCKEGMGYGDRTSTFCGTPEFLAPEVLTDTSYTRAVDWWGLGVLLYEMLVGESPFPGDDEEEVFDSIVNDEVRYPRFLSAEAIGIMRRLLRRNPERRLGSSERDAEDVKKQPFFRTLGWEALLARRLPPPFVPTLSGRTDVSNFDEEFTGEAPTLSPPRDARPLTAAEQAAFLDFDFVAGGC
Chain of ERK4 (P31152 whole entry): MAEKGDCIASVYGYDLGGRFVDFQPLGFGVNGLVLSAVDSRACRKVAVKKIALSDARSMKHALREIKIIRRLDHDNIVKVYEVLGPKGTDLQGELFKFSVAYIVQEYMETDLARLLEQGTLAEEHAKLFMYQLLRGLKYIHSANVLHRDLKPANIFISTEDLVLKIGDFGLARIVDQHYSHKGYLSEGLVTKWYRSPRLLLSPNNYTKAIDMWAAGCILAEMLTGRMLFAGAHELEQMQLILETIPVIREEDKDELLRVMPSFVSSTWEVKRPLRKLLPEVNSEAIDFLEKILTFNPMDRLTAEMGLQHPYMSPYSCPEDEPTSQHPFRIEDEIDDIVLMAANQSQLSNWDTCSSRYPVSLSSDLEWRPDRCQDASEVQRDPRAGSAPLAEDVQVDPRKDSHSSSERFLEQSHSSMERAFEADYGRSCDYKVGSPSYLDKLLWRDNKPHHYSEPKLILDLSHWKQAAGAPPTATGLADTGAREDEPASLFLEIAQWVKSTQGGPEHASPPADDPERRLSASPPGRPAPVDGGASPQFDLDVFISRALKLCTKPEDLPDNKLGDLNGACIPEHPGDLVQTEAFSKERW
Chain of WNK3 (Q9BYP7 whole entry): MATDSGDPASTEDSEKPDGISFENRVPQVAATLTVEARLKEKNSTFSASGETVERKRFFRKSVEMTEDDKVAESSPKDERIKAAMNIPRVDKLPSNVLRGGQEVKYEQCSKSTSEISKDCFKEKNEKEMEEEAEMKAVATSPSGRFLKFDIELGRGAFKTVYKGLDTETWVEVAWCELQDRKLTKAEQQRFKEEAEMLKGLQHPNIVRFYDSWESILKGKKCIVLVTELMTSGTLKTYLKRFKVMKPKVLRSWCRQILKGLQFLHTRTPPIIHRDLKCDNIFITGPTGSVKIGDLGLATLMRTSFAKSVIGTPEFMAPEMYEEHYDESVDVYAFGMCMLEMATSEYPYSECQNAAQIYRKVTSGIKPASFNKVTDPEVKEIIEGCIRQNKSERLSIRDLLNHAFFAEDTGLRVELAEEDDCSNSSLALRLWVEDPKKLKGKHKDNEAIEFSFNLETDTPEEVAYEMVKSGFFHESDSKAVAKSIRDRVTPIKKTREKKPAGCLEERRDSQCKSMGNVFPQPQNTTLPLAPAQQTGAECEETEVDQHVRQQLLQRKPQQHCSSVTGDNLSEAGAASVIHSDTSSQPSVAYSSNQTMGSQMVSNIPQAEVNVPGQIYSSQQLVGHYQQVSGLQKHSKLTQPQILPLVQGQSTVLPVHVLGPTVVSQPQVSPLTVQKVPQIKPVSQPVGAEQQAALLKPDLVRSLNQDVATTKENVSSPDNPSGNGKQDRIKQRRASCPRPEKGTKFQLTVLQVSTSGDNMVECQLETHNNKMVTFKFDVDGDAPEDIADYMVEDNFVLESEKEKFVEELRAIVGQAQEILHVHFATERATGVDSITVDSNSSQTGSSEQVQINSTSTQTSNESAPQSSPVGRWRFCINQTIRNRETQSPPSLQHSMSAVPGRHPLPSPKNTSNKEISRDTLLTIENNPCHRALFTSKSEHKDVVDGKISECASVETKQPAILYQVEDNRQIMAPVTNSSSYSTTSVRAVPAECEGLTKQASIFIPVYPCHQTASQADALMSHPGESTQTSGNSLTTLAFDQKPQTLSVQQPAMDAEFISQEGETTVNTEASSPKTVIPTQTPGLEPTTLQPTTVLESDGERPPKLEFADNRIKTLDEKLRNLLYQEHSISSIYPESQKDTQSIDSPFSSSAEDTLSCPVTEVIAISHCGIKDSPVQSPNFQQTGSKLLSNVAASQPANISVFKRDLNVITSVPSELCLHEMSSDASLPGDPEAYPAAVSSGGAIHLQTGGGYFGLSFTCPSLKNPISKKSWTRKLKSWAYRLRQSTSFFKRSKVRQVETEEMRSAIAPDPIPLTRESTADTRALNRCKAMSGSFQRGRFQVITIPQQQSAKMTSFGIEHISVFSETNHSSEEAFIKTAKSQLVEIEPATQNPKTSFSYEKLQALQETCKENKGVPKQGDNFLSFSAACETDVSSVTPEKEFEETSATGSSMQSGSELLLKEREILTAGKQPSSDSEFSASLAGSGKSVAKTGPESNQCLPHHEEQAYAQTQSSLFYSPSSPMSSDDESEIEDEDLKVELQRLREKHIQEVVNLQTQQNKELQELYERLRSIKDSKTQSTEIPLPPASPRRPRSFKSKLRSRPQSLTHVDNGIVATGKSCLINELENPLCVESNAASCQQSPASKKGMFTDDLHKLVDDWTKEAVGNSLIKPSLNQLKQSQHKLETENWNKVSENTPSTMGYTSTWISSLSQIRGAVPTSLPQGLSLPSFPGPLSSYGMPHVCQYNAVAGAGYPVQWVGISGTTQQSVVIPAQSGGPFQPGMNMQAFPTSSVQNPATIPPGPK

Structure (SMILES): CN1CCN(c2ccc(Nc3nc(Oc4ccc(NC(=O)CCl)cc4)c4cc[nH]c4n3)cc2)CC1 [CPT1-70-1]
- remaining activity at 1 µM (FLT3-autoinhibited): 38%
- remaining activity at 1 µM (PKN1): 79%
- remaining activity at 1 µM (PKN2): 100%
- remaining activity at 1 µM (PIP5K1A): 13%
- remaining activity at 1 µM (WNK3): 100%
- remaining activity at 1 µM (PKMYT1): 94%
- remaining activity at 1 µM (PIK3CD): 100%
- remaining activity at 1 µM (PIM2): 100%
- remaining activity at 1 µM (PIP5K1C): 57%
- remaining activity at 1 µM (NIK): 100%
- remaining activity at 1 µM (PKAC-beta): 100%
- remaining activity at 1 µM (PKAC-alpha): 69%
- remaining activity at 1 µM (SGK2): 100%
- remaining activity at 1 µM (PIP5K2C): 63%
- remaining activity at 1 µM (PIK3CA(Q546K)): 100%
- remaining activity at 1 µM (PIM1): 100%
- remaining activity at 1 µM (PIK3CG): 100%
- remaining activity at 1 µM (WNK1): 100%
- remaining activity at 1 µM (PIK3CB): 100%
- remaining activity at 1 µM (NEK10): 14%
- remaining activity at 1 µM (SGK): 26%
- remaining activity at 1 µM (EPHB6): 44%
- remaining activity at 1 µM (EPHB4): 100%
- remaining activity at 1 µM (EIF2AK1): 100%
- remaining activity at 1 µM (ERK3): 1%
- remaining activity at 1 µM (ERK4): 96%
- remaining activity at 1 µM (ERK2): 100%
- remaining activity at 1 µM (HASPIN): 100%
- remaining activity at 1 µM (ERBB3): 53%
- remaining activity at 1 µM (ERK1): 100%
